In EP1080104B1, “CERTAIN HETEROARYL SUBSTITUTED THIOL INHIBITORS OF ENDOTHELIN-CONVERTING ENZYME” (Novartis AG, priority 1998, dated 2005):
pIC50: −log10 of the molar value. Bridges are numbered along the chain shown (N, C = ends). Where no end group is shown, it is not given here.

Key:
[1] = biological target: T1, recombinant human endothelin converting enzyme-1 (rhECE-1) (Homo sapiens, UniProt P42892); assay: in vitro assay for rh-ECE-1 inhibition (radioimmunoassay of ET-1 formed from big ET-1); type: biochemical; conditions: membrane preparation from CHO cells, human big ET-1 0.2 µM, 2 h at 37 °C
T1 construct: made in house; host or cells: Chinese hamster ovary (CHO) cells; 100,000 x g membrane pellet of the homogenate
T1 sequence (P42892 1-770): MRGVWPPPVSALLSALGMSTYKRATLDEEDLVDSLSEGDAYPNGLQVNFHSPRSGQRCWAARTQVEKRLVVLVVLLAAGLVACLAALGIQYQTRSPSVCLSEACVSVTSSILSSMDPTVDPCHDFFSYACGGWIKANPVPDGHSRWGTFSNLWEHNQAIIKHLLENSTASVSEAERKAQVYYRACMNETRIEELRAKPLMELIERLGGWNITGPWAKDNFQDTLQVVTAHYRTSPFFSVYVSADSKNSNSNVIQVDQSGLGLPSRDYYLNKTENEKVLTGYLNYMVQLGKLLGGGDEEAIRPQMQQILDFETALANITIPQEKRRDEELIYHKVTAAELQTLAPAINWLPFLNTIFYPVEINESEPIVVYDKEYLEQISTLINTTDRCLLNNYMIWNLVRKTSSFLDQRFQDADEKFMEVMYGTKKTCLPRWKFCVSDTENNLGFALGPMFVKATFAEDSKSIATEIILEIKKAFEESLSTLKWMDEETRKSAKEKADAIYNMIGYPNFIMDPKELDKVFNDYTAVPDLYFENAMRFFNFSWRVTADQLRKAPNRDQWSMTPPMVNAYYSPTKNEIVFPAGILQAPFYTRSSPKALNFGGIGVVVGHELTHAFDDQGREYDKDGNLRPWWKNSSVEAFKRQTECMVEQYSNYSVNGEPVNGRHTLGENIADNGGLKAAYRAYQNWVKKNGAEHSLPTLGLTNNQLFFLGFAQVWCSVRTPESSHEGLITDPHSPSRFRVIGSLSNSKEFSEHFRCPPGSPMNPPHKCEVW
Description: Cells are harvested by scraping, pelleted by centrifugation, and homogenized at 4 °C in a buffer containing 5 mM MgCl2., 1 µM pepstatin A, 100 µM leupeptin, 1 mM PMSF, and 20 mM Tris, pH 7.0, with a ratio of 2 mL of buffer/mL of cells. The cell debris is removed by brief centrifugation, and the supernatant is centrifuged again at 100,000 x g for 30 minutes. The resulting pellet is resuspended in a buffer containing 200 mM NaCl and 50 mM Tes, pH 7.0, at a protein concentration about 15 mg/mL and stored in aliquots at -80°C.
To assess the effect of an inhibitor on ECE-1 activity, 10 µg of protein is preincubated with the compound at a desired concentration for 20 min at room temperature in 50 mM TES, pH 7.0, and 0.005% Triton X-100 in a volume of 10 µL. […]
Diluted samples (200 µL) obtained from the above enzyme assay are incubated at 4° C overnight with 25 µL each of [^125I]ET-1 (10,000 cpm/tube) and 1:20,000-fold diluted rabbit antibodies that recognize specifically the carboxyl terminal tryptophan of ET-1. […] The supernatant is decanted, and the radioactivity in the pellet is counted in a gamma counter. Total and nonspecific binding are measured in the absence of nonradioactive ET-1 and anti-ET antibodies, respectively.
In order to determine the IC50 value of an inhibitor, a concentration-response curve of each inhibitor is determined. […]

[2] = biological target: rabbit antibodies that recognize specifically the carboxyl terminal tryptophan of ET-1; type: binding; conditions: mean ± SEM, n = 3 - 5; 4° C overnight
Description: Diluted samples (200 µL) obtained from the above enzyme assay are incubated at 4° C overnight with 25 µL each of [^125I]ET-1 (10,000 cpm/tube) and 1:20,000-fold diluted rabbit antibodies that recognize specifically the carboxyl terminal tryptophan of ET-1. Goat anti-rabbit antibodies coupled to magnetic beads (70 µg) are then added to each tube, and the reaction mixture is further incubated for 30 min at room temperature. The beads are pelleted using a magnetic rack. The supernatant is decanted, and the radioactivity in the pellet is counted in a gamma counter. Total and nonspecific binding are measured in the absence of nonradioactive ET-1 and anti-ET antibodies, respectively.

Molecule: CC(C)C[C@H](S)C(=O)NC1(C(=O)N[C@@H](Cc2ccc(-c3cccs3)nc2)C(=O)O)CCCC1 [Example 2(s), 2-{[1-(2-Mercapto-4-methyl-pentanoylamino)-cyclopentanecarbonyl]-amino}-3-[6-(thien-2-yl)-pyridin-3-yl]-propionic acid]
- pIC50 [1]: ~8.40

Molecule: big ET-1: Human big ET-1, substrate of the ECE-1 assay (CSCSSLMDKECVYFCHLDIIWVNTPEHVVPYGLGSPRS; disulfide 1-15, 3-11; ends not checked; UniProt P05305 53-90, looked up)
- IC50 values (displace [125I]ET-1 binding to the antibodies) [2]: 260,000 ± 66,000 fmol
